The structures appear in SMILES notation.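 48-hour exposure; five concentrations; linearly interpolated endpoints. The concentration for full growth arrest is given as TGI.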

From PubChem BioAssay (NCI) come the findings set out here.

Some test systems named below: SW-620 colon; SK-MEL-28 melanoma; HCT-15 colon; HL-60(TB) leukemia; SK-MEL-2 melanoma; A549 NSCLC; MDA-N; CCRF-CEM leukemia; RPMI-8226 leukemia; SK-OV-3 ovarian.
Assay in all cases: NCI-60 cell line screen, 48 h

Consider `CCOC(=O)C1(C(=O)OCC)CC(=O)[C@@]2(C1)OCC[C@H]1OC(=O)C[C@H]12`, for which the TGI in the experiment on SW-620 colon, in the experiment with SK-MEL-28 melanoma, with HCT-15 colon, in the experiment on HL-60(TB) leukemia, in the experiment on SK-MEL-2 melanoma and with A549 NSCLC was more than 100 µM each time. Further, the TGI in the experiment on MDA-N, in the experiment on CCRF-CEM leukemia and in the experiment on RPMI-8226 leukemia was more than 100 µM in each case.

For the compound `Nc1nc(N)c2nnn(C[C@H]3CC[C@@H](CO)C3)c2n1`, the TGI in the experiment on SW-620 colon, with SK-MEL-28 melanoma, in the experiment with HCT-15 colon, in the experiment on HL-60(TB) leukemia, with SK-OV-3 ovarian and with A549 NSCLC was more than 100 µM throughout. Moreover, the TGI in the experiment on MDA-N, in the experiment with CCRF-CEM leukemia and with RPMI-8226 leukemia was more than 100 µM each time.

Take `COc1cc2c3c(n(Cc4ccccc4)c(=O)c2cc1OC)-c1ccccc1C3=O`: the TGI in the experiment with SW-620 colon, with SK-MEL-28 melanoma, in the experiment on HCT-15 colon, with HL-60(TB) leukemia, with SK-MEL-2 melanoma and in the experiment on A549 NSCLC was more than 100 µM throughout. The TGI with MDA-N, in the experiment on CCRF-CEM leukemia and in the experiment on RPMI-8226 leukemia was more than 100 µM in each case.

Take `CCOC(=O)C(C)(C)/C=C\C(Cl)=C(Cl)Cl`: the TGI in the experiment on SW-620 colon, with SK-MEL-28 melanoma, in the experiment with HL-60(TB) leukemia, in the experiment on SK-OV-3 ovarian, with A549 NSCLC and in the experiment with MDA-N was more than 100 µM in each case. The TGI with CCRF-CEM leukemia and with RPMI-8226 leukemia was more than 100 µM throughout.

Regarding `O=c1c(O)c(-c2cc(O)c(O)cc2O)oc2cc(O)c(C3OC(CO)C(O)C(O)C3O)c(O)c12` (stereo not given), the TGI in the experiment with SW-620 colon, with SK-MEL-28 melanoma, with HCT-15 colon, in the experiment with HL-60(TB) leukemia, with SK-MEL-2 melanoma and in the experiment with SK-OV-3 ovarian was more than 100 µM throughout. Besides, the TGI in the experiment with A549 NSCLC, with MDA-N and in the experiment with RPMI-8226 leukemia was more than 100 µM each time.

`O=C1CCCCC[C@]12SC[C@H]1CON=C12`: the TGI in the experiment on SW-620 colon, with SK-MEL-28 melanoma, with HCT-15 colon, with HL-60(TB) leukemia, with SK-OV-3 ovarian and with A549 NSCLC was more than 100 µM throughout. The TGI with MDA-N was 32.5 µM; in the experiment on CCRF-CEM leukemia, more than 100 µM; in the experiment with RPMI-8226 leukemia it was more than 100 µM.

In the case of `CC1(C)C[C@H](O)[C@H](O)[C@]23C(=O)O[C@H](O)[C@H]2C(C=O)=CC[C@@H]13`, the TGI in the experiment with SW-620 colon, in the experiment with SK-MEL-28 melanoma, in the experiment on HCT-15 colon, in the experiment on HL-60(TB) leukemia, in the experiment on A549 NSCLC and with MDA-N was more than 100 µM throughout. For the same compound, the TGI in the experiment on CCRF-CEM leukemia and with RPMI-8226 leukemia was more than 100 µM in each case.

`COc1ccc2c(c1)CCCN1CCc3cc(OC)c(OC)cc3C21` (stereo not given): the TGI with SW-620 colon, with SK-MEL-28 melanoma, in the experiment with HCT-15 colon, in the experiment on HL-60(TB) leukemia, in the experiment with SK-OV-3 ovarian and with A549 NSCLC was more than 100 µM in each case. The TGI with MDA-N, in the experiment on CCRF-CEM leukemia and in the experiment on RPMI-8226 leukemia was more than 100 µM in each case.

On to `Cc1ccc(/C=N/NC2=NCCN2)s1`, for which the TGI in the experiment with SW-620 colon, with SK-MEL-28 melanoma, in the experiment with HCT-15 colon, with HL-60(TB) leukemia, with SK-MEL-2 melanoma and in the experiment with SK-OV-3 ovarian was more than 100 µM each time. In addition, the TGI in the experiment with A549 NSCLC, in the experiment on MDA-N and with RPMI-8226 leukemia was more than 100 µM each time.

Take `Cc1ccc(Nc2nc(=O)[nH]c(=O)[nH]2)cc1N=[N+]=[N-]`: the TGI in the experiment with SW-620 colon, in the experiment with HCT-15 colon, with HL-60(TB) leukemia, in the experiment with SK-MEL-2 melanoma, with SK-OV-3 ovarian and in the experiment on A549 NSCLC was more than 100 µM throughout. The TGI in the experiment on MDA-N, in the experiment with CCRF-CEM leukemia and in the experiment on RPMI-8226 leukemia was more than 100 µM throughout.

Take `CSc1nncc2[nH]cnc12`: the TGI in the experiment with SW-620 colon, with SK-MEL-28 melanoma, in the experiment on HCT-15 colon, with HL-60(TB) leukemia, in the experiment with SK-MEL-2 melanoma and in the experiment with A549 NSCLC was more than 100 µM in each case. For the same compound, the TGI with MDA-N, in the experiment on CCRF-CEM leukemia and in the experiment on RPMI-8226 leukemia was more than 100 µM each time.

Consider `C/C(=N\O)c1cccc(Nc2nc3ccccc3c3occc23)c1`, for which the TGI with SK-MEL-28 melanoma was determined as 29.2 µM; in the experiment with HCT-15 colon it was 22.4 µM; in the experiment on HL-60(TB) leukemia, 61.1 µM; in the experiment on SK-OV-3 ovarian, 28.7 µM; with A549 NSCLC, 32.5 µM; with MDA-N, 27.9 µM. Also, the TGI came out at 31 µM in the experiment with CCRF-CEM leukemia and 31.8 µM in the experiment on RPMI-8226 leukemia.
